Here are results for 14 compounds from US8906925B2, “Pyrido[4,3-B]indoles containing rigid moieties” (Medivation Technologies, Inc., priority 2008, dated 2014).

The target in test [1] is T1, human recombinant serotonin (5-Hydroxytryptamine) 5-HT2A receptor (Homo sapiens, UniProt P28223).
T1 construct: expressed in transfected cells; host or cells: Chinese hamster ovary (CHO-K1) cells
In words: Serotonin 5-HT2A radioligand binding ([3H]Ketanserin). The conditions noted are these: for inhibition at 0.1 µM: read-out: Inhibition of ligand binding, Serotonin 5-HT2A (percent inhibition of specific binding), compound at 0.1 μM. The protocol:
Compounds of the invention were incubated with 0.5 nM [^3H]Ketanserin for 60 min. at 25° C. Non-specific binding was estimated in the presence of 1 μM Mianserin. Receptor proteins were filtered and washed, the filters were then counted to determine [^3H]Ketanserin specifically bound.

Test [2] concerns the target T2, human recombinant serotonin (5-Hydroxytryptamine) 5-HT6 receptor (Homo sapiens, UniProt P50406).
T2 construct: expressed in transfected cells; host or cells: human HeLa cells
In words: Serotonin 5-HT6 radioligand binding ([3H]LSD). The conditions noted are these: compound at 0.1 μM; for inhibition at 0.1 µM: read-out: Inhibition of ligand binding, Serotonin 5-HT6 (percent inhibition of specific binding). The protocol:
Compounds of the invention were incubated with 1.5 nM [3H]Lysergic acid diethylamide (LSD) for 120 min. at 37° C. […] Receptor proteins were filtered and washed, the filters were then counted to determine [3H]LSD specifically bound. Compounds were screened at 1 μM or lower, using 1% DMSO as vehicle. Biochemical assay results are presented as the percent inhibition of specific binding in Table 10.

The target of test [3] is T3, human recombinant serotonin (5-Hydroxytryptamine) 5-HT2C receptor (Homo sapiens, UniProt P28335).
T3 construct: expressed in transfected cells; host or cells: Chinese hamster ovary (CHO-K1) cells
T3 sequence (P28335 33-458): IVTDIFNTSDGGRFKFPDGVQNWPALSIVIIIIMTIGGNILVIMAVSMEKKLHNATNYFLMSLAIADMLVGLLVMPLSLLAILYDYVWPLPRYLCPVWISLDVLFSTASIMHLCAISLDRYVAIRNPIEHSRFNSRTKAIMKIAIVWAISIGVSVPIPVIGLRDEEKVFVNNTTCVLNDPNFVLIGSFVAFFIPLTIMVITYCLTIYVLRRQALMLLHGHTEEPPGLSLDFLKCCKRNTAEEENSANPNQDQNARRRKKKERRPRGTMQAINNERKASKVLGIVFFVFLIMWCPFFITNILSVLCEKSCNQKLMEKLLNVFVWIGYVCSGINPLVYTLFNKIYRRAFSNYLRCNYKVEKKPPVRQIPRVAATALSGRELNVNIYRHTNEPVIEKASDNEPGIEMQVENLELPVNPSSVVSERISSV
In words: Serotonin 5-HT2C radioligand binding ([3H]Mesulergine). Particulars: compound at 0.1 μM; for inhibition at 0.1 µM: read-out: Inhibition of ligand binding, Serotonin 5-HT2C (percent inhibition of specific binding). The procedure:
Compounds of the invention were incubated with 1 nM [^3H]Mesulergine for 60 min. at 25° C. Non-specific binding was estimated in the presence of 1 μM Mianserin. Receptor proteins were filtered and washed, the filters were then counted to determine [^3H]Mesulergine specifically bound. Compounds were screened at 1 μM or lower, using 1% DMSO as vehicle. Biochemical assay results are presented as the percent inhibition of specific binding in Table 10.

Test [4] has as its target human dopamine D2L receptor (Homo sapiens, UniProt P14416). In words: Dopamine D2L radioligand binding ([3H]Spiperone). The conditions noted are these: percent inhibition of specific binding, compound at 1 μM; for inhibition at 1 µM: read-out: Inhibition of ligand binding, Dopamine D2L. The text has this:
Non-specific binding was estimated in the presence of […] Haloperidol. Receptor proteins were filtered and washed, the filters were then counted to determine [^3H]Spiperone specifically bound. […] Biochemical assay results are presented as the percent inhibition of specific binding in Table 9.

In test [5] the target is human recombinant serotonin (5-Hydroxytryptamine) 5-HT7 receptor (Homo sapiens, UniProt P34969). The experiment in a line: Serotonin 5-HT7 radioligand binding ([3H]LSD). Particulars: compound at 0.1 μM; for inhibition at 0.1 µM: read-out: Inhibition of ligand binding, Serotonin 5-HT7 (percent inhibition of specific binding). The text has this: Receptor proteins were filtered and washed, the filters were then counted to determine [^3H]LSD specifically bound.

The target in test [6] is histamine receptor H1 (Homo sapiens, UniProt P35367). The experiment in a line: Histamine H1 radioligand binding ([3H]Pyrilamine). The conditions noted are these: read-out: Histamine Binding (1 μM) H1, percent inhibition of specific binding, 1 μM. An outline of the steps:
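Values are percent inhibition of specific [3H]pyrilamine (1.2 nM) binding with compounds at ≤1 μM (1% DMSO vehicle); 180 min incubation at 25 °C, pH 7.4 Tris buffer, on CHO-expressed human H1 receptor; 1 μM pyrilamine defined nonspecific binding, bound ligand counted after filtration.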

Sequence of histamine receptor H1 (P35367 whole entry): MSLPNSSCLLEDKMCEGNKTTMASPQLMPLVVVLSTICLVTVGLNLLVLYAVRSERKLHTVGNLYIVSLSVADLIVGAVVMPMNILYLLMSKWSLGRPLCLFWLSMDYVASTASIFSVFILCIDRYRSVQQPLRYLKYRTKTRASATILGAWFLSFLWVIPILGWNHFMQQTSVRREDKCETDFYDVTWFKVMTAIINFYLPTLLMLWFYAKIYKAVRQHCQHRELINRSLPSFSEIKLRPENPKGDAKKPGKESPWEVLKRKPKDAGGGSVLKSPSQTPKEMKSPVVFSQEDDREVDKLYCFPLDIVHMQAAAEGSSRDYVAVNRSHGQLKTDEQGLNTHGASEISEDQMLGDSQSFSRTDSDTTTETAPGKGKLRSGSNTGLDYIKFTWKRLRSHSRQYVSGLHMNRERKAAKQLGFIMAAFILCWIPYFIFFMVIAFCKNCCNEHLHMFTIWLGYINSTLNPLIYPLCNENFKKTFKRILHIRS
T2 sequence (P50406 whole entry): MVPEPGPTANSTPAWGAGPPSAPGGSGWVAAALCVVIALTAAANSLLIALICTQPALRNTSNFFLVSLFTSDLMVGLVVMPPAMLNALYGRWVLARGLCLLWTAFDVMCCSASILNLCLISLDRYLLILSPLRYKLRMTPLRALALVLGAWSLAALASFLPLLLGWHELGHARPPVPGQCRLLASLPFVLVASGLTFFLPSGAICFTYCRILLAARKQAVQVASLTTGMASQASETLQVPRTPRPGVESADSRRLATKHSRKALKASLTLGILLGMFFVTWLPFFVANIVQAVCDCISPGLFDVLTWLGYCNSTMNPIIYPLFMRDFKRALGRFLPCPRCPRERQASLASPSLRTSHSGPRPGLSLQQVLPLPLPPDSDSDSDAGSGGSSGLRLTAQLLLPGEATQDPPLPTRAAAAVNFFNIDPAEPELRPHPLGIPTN
Sequence of human recombinant serotonin (5-Hydroxytryptamine) 5-HT7 receptor (P34969 whole entry): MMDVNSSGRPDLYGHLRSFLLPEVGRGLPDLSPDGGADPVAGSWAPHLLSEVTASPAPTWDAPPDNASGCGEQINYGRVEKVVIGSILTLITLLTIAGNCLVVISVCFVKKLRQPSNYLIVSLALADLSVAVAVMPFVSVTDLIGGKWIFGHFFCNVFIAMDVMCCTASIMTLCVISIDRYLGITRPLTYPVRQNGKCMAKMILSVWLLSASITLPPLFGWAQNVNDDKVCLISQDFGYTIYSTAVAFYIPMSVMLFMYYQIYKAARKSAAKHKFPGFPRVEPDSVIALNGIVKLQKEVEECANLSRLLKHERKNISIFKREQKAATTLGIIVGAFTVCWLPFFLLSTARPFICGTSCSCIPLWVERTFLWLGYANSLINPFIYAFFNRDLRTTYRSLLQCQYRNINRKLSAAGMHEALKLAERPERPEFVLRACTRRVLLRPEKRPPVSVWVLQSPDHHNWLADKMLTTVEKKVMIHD
Sequence of human dopamine D2L receptor (P14416 whole entry): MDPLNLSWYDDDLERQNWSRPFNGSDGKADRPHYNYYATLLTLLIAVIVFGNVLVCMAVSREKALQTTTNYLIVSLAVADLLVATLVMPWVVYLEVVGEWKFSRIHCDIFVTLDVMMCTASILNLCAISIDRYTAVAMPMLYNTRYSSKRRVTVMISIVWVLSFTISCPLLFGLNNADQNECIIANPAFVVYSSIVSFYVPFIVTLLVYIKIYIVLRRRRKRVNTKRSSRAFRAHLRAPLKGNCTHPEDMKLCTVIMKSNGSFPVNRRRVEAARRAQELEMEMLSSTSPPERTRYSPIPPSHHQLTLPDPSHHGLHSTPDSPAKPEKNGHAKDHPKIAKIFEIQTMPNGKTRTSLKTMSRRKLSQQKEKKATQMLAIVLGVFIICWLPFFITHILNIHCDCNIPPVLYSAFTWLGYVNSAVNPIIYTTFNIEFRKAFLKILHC
T1 sequence (P28223 whole entry): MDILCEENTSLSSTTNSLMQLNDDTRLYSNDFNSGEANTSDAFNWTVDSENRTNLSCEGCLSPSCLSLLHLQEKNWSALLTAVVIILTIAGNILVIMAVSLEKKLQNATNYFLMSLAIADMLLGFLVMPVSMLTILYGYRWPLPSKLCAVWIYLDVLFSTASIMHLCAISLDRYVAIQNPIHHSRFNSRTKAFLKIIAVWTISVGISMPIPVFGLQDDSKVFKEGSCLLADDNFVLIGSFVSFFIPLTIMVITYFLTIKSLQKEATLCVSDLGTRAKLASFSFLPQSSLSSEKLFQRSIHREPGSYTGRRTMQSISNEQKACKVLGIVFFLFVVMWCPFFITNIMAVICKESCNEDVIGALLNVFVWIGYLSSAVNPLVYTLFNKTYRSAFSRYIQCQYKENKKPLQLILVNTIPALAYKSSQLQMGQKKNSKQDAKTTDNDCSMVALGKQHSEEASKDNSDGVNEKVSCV

As for `Cc1ccc2c(c1)c1c(n2CC(C)(O)c2ccncn2)CCN(C)C1` (stereo not drawn) [Compound 197, 1-(2,8-dimethyl-3,4-dihydro-1H-pyrido[4,3-b]indol-5(2H)-yl)-2-(pyrimidin-4-yl)propan-2-ol], the inhibition (in general, the relative decrease from the control value, in per cent) at 0.1 µM in test [1] was found to be 17%; in test [2], 4%; in test [3] it was 16%; in test [5], 10%. In addition, the inhibition at 1 µM in test [4] was 14%; in test [6] it was 61%.
Turning to `C/C(=C\n1c2c(c3cc(C(C)(C)C)ccc31)CN(C)CC2)c1ccncc1` [Compound 271, (E)-8-tert-butyl-2-methyl-5-(2-(pyridin-4-yl)prop-1-enyl)-2,3,4,5-tetrahydro-1H-pyrido[4,3-b]indole], the inhibition at 0.1 µM in test [1] came out at 41%; in test [2], 90%; in test [3], 19%; in test [5] it was 10%. In addition, the inhibition at 1 µM in test [4] was 63%; in test [6], -16%.
In the case of `C/C(=C\n1c2c(c3cc(C)ccc31)CN(C)C(C)C2)c1ccc(F)cc1` (stereo not drawn) [Compound 258, (E)-5-(2-(4-fluorophenyl)prop-1-enyl)-2,3,8-trimethyl-2,3,4,5-tetrahydro-1H-pyrido[4,3-b]indole], the inhibition at 0.1 µM is 98% in test [1], 81% in test [2], 98% in test [3] and 84% in test [5]. For the same compound, the inhibition at 1 µM in test [4] came out at 81%; in test [6], 59%.
With `CN1CCc2c(c3cc(Cl)ccc3n2CC(C)(O)c2cnccn2)C1` (stereo not drawn) [Compound 199, 1-(8-chloro-2-methyl-3,4-dihydro-1H-pyrido[4,3-b]indol-5(2H)-yl)-2-(pyrazin-2-yl)propan-2-ol], the inhibition at 0.1 µM turned out to be 40% in test [1], 25% in test [2], 33% in test [3] and 30% in test [5]. The inhibition at 1 µM in test [4] came out at 16%; in test [6] it was 61%.
Take `C/C(=C\n1c2c(c3cc(F)c(F)cc31)CN(C)CC2)c1ccc(C)nc1` [Compound 255, (E)-7,8-difluoro-2-methyl-5-(2-(6-methylpyridin-3-yl)prop-1-enyl)-2,3,4,5-tetrahydro-1H-pyrido[4,3-b]indole]: the inhibition at 0.1 µM in test [1] was 81%; in test [2] it was 4%; in test [3], 69%; in test [5], 54%. For the same compound, the results for the inhibition at 1 µM in test [4] and in test [6] were 29% and 11%, respectively.
Consider `C/C(=C\n1c2c(c3cccc(Cl)c31)CN(C)CC2)c1ccc(C)nc1` [Compound 252, (E)-6-chloro-2-methyl-5-(2-(6-methylpyridin-3-yl)prop-1-enyl)-2,3,4,5-tetrahydro-1H-pyrido[4,3-b]indole], for which the inhibition at 0.1 µM is 67% in test [1], 9% in test [2], 50% in test [3] and 23% in test [5]. Also, the inhibition at 1 µM in test [4] worked out at 13%; in test [6], 22%.
Regarding `C/C(=C\n1c2c(c3cc(Cl)ccc31)CN(C)C(C)C2)c1ccc(C)nc1` (stereo not drawn) [Compound 273, (E)-8-chloro-2,3-dimethyl-5-(2-(6-methylpyridin-3-yl)prop-1-enyl)-2,3,4,5-tetrahydro-1H-pyrido[4,3-b]indole], the inhibition at 0.1 µM in test [1] was 94%; in test [2], 46%; in test [3] it was 100%; in test [5], 85%. Besides, the values for the inhibition at 1 µM in test [4] and in test [6] were 12% and 41%, respectively.
In the case of `C/C(=C\n1c2c(c3cc(C(F)(F)F)ccc31)CN(C)CC2)c1ccc(F)cc1` [Compound 268, (E)-5-(2-(4-fluorophenyl)prop-1-enyl)-2-methyl-8-(trifluoromethyl)-2,3,4,5-tetrahydro-1H-pyrido[4,3-b]indole], the inhibition at 0.1 µM came out at 98% in test [1], 97% in test [2], 86% in test [3] and 87% in test [5]. Moreover, the inhibition at 1 µM was 98% in test [4] and 53% in test [6].
As to `Cc1ccc2c(c1)c1c(n2/C=C(\c2ccncc2)C(C)C)CCN(C)C1` [Compound 264, (Z)-2,8-dimethyl-5-(3-methyl-2-(pyridin-4-yl)but-1-enyl)-2,3,4,5-tetrahydro-1H-pyrido[4,3-b]indole], the inhibition at 0.1 µM in test [1] worked out at 99%; in test [2], 89%; in test [3] it was 94%; in test [5] it was 51%. In addition, the inhibition at 1 µM in test [4] came to 49%; in test [6], 24%.
Consider `CC/C(=C/n1c2c(c3cc(C)ccc31)CN(C)CC2)c1ccncc1` [Compound 281, (Z)-2,8-dimethyl-5-(2-(pyridin-4-yl)but-1-enyl)-2,3,4,5-tetrahydro-1H-pyrido[4,3-b]indole], for which the inhibition at 0.1 µM was found to be 103% in test [1], 78% in test [2], 96% in test [3] and 93% in test [5]. In addition, the inhibition at 1 µM in test [4] turned out to be 51%; in test [6], 42%.
Turning to `C/C(=C\n1c2c(c3cc(Cl)ccc31)CN(C)C(C)C2)c1ccc(F)cc1` (stereo not drawn) [Compound 262, (E)-8-chloro-5-(2-(4-fluorophenyl)prop-1-enyl)-2,3-dimethyl-2,3,4,5-tetrahydro-1H-pyrido[4,3-b]indole], the inhibition at 0.1 µM in test [1] worked out at 99%; in test [2], 99%; in test [3], 100%; in test [5], 94%. Further, the values for the inhibition at 1 µM in test [4] and in test [6] were 97% and 66%, respectively.
For the compound `CC(C)C(O)(Cn1c2c(c3cc(Cl)ccc31)CN(C)CC2)c1ccncc1` (stereo not drawn) [Compound 193, 1-(8-chloro-2-methyl-3,4-dihydro-1H-pyrido[4,3-b]indol-5(2H)-yl)-3-methyl-2-(pyridin-4-yl)butan-2-ol], the inhibition at 0.1 µM in test [1] was 69%; in test [2], 3%; in test [3] it was 44%; in test [5], 40%. The values for the inhibition at 1 µM in test [4] and in test [6] were 14% and -7%, respectively.
For `CC/C(=C/n1c2c(c3cc(Cl)ccc31)CN(C)CC2)c1ccncc1` [Compound 282, (Z)-8-chloro-2-methyl-5-(2-(pyridin-4-yl)but-1-enyl)-2,3,4,5-tetrahydro-1H-pyrido[4,3-b]indole], the inhibition at 0.1 µM in test [1] is 100%; in test [2] it was 102%; in test [3], 94%; in test [5] it was 91%. Moreover, the inhibition at 1 µM in test [4] was 57%; in test [6] it was 31%.
On to `C/C(=C\n1c2c(c3cc(Cl)ccc31)CN(C)CC2)c1ccc(F)cc1F` [Compound 277, (E)-8-chloro-5-(2-(2,4-difluorophenyl)prop-1-enyl)-2-methyl-2,3,4,5-tetrahydro-1H-pyrido[4,3-b]indole], for which the “Inhibition of ligand binding, Serotonin 5-HT2A (percent inhibition of specific binding)” value in test [1] (compound at 0.1 μM, 0.1 µM) was 100%. Further, the “Inhibition of ligand binding, Serotonin 5-HT6 (percent inhibition of specific binding)” value in test [2] (0.1 µM) amounted to 98%. Further, the “Inhibition of ligand binding, Serotonin 5-HT2C (percent inhibition of specific binding)” value in test [3] (0.1 µM) was found to be 98%. Besides, the “Inhibition of ligand binding, Dopamine D2L” value in test [4] (1 µM) came out at 98%. Further, the “Inhibition of ligand binding, Serotonin 5-HT7 (percent inhibition of specific binding)” value in test [5] (0.1 µM) worked out at 103%. Moreover, the inhibition at 1 µM in test [6] turned out to be 95%.
